Test results: patent publication US20250186600A1, “EXCIPIENT COMPOUNDS FOR PROTEIN FORMULATIONS” (Comera Life Sciences, Inc., priority 2020, published 2025)
Values belong to the compound of their own block, whether it stands above or below them.

Tests used:
infliximab = assay: Thermal stability at 50° C. with caffeine and excipients, SE-HPLC (Example 63); assay type: physicochemical; conditions: excipient 0.5 M, caffeine 50 mM, infliximab 10 mg/mL, 5 mM phosphate pH 7.5, 50° C., 180 min
Method: Therapeutic proteins stress leads to aggregation of the protein and a decrease in the active native species. […] The aliquots were withdrawn at 0 min, 90 min and 180 min. […] Diode array detector.

[1] = test system: bovine gamma globulin (BGG); assay: Normalized viscosity of BGG with caffeine and a secondary excipient (Example 40); assay type: physicochemical; conditions: BGG about 280 mg/mL, 20 mM histidine pH 6, 25° C.
omalizumab [2] = assay: Freeze-thaw stability, light scattering at 350 nm (Example 48); assay type: physicochemical; conditions: excipient 5 mg/mL, omalizumab 5 mg/mL, 20 mM histidine pH 6.0, at least 5 freeze (−80° C.)/thaw cycles
omalizumab [3] = assay: DLS viscosity of concentrated omalizumab (Example 53); assay type: physicochemical; conditions: concentrated omalizumab 9 parts : 1 part excipient stock (1 M or solubility limit), 20 mM HisHCl pH 6
Method: O-(octylphosphoryl)choline was purchased from Sigma Aldrich (St. […] O-(octylphosphoryl)choline was used as a stock excipient without additional preparation. […] In this example, the ratio of apparent radius to the actual radius of the gold nanoparticle was multiplied by the viscosity of water at 25° C. to calculate the viscosity of the protein formulation in centipoise (cP).

omalizumab [4] = assay: DLS viscosity of concentrated omalizumab (Example 54); assay type: physicochemical; conditions: concentrated omalizumab 9 parts : 1 part excipient stock (1 M or solubility limit), 20 mM HisHCl pH 6
Method: Hordenine HCl was purchased from Bulk Supplements (Henderson, NV).
The concentrated protein formulation was then combined with a stock excipient solution or a control at a ratio of 9 parts protein: 1 part excipient solution or buffer (for the control), and aliquots were added to the wells of a 384 well microplate (Aurora Microplates, Whitefish, MT). […] After the microplate was shaken, 2 microliters of a 5-fold dilution of polyethylene glycol surface-modified gold nanoparticles having a diameter of 100 nm (nanoComposix, San Diego, CA) in 20 mM His HCl were added to each sample well. […] In this example, the ratio of apparent radius to the actual radius of the gold nanoparticle was multiplied by the viscosity of water at 25° C. to calculate the viscosity of the protein formulation in centipoise (cP).

ustekinumab [5] = assay: Stabilization at low pH, Sypro orange fluorescence (Example 45); conditions: excipient 5 mg/mL, ustekinumab 1 mg/mL, glycine acidification buffer pH 2.6, Sypro orange fluorescence
[6] = Caffeine solubility with co-solutes during refrigerated storage (Example 61); assay type: physicochemical; design: key: (PPT)—precipitate observed; (—)—clear solution observed; conditions: 50 mM co-solute, 25 mM histidine pH 6, stored 2 to 5° C.
Method: The resulting microplates were then sealed with microplate tape and stored in a refrigerator with the temperature maintained in the range of 2 to 5° C. Over the course of storage, the microplates were visually observed for evidence of precipitate in the well.

ustekinumab [7] = assay: Urea denaturation, Sypro orange fluorescence (Example 44); assay type: physicochemical; conditions: excipient 5 mg/mL, ustekinumab 1 mg/mL, 6M urea, 20 mM histidine pH 6.0, Sypro orange fluorescence
Excerpt: It is known that urea denatures proteins in solution and causes them to unfold. The screening methodology in this example involved adding a specific concentration of urea to a therapeutic protein solution such as ustekinumab. […] One method to track protein unfolding involves the use of extrinsic fluorescent dyes such as Sypro orange. Sypro orange binds to hydrophobic regions in the unfolded protein structure, leading to an increase in the fluorescence signal observed. Measuring the differences in the fluorescence intensity of unfolded protein-Sypro orange complex in presence of different excipients thus allows one to identify any stabilizing effects.
All excipients used in this Example, listed in Table 45 below, were of the highest purity, and were obtained from Sigma Aldrich (St. Louis, MO) or Cayman Chemical (Ann Arbor, MI). […] This urea stock solution was then added to a final concentration of 6M to produce the test solutions (excipient plus protein plus urea). […] The pH of the mixture was rechecked and confirmed to be at pH 6.0. The test solutions were allowed to incubate at room temperature for 30 min.

[8] = Excipient A caffeine 15 mg/mL + Excipient B 20 mg/mL
[9] = Excipient A caffeine 15 mg/mL + Excipient B 15 mg/mL

Compound: OC[C@H]1O[C@H](O[C@H]2[C@H](O)[C@@H](O)C(O)O[C@@H]2CO)[C@H](O)[C@@H](O)[C@@H]1O (mixture of isomers) [Maltose]
% change compared to control (infliximab): 9.65%

Compound: O=C1O[C@H]([C@@H](O)CO)C(O)=C1O[C@H]1O[C@H](CO)[C@@H](O)[C@H](O)[C@H]1O [Ascorbyl glucoside]
% change compared to control (infliximab): 45.8%

Compound: O.O.[Ca+2].[Cl-].[Cl-] [CaCl2 dihydrate]
Normalized Viscosity [1, 9]: 0.65

Compound: CS(C)(=O)=O [Dimethyl sulfone, dimethyl sulfone]
Normalized Viscosity ([1]; Excipient A caffeine 15 mg/mL + Excipient B 25 mg/mL): 0.65

Compound: CCCCn1ccnc1 [Excipient 1-butylimidazole, 1-butylimidazole]
DLS Viscosity, Replicate 1 (omalizumab [3]): 16.8 cP
DLS Viscosity, Replicate 2 (omalizumab [3]): 15.6 cP
DLS Viscosity, Replicate 1 (omalizumab [4]): 40.5 cP
DLS Viscosity, Replicate 2 (omalizumab [4]): 74.0 cP

Compound: CCCCCCn1ccnc1 [Excipient 1-hexylimidazole, 1-hexylimidazole]
DLS Viscosity, Replicate 1 (omalizumab [3]): 13.6 cP
DLS Viscosity, Replicate 2 (omalizumab [3]): 14.0 cP
DLS Viscosity, Replicate 1 (omalizumab [4]): 27.0 cP
DLS Viscosity, Replicate 2 (omalizumab [4]): 33.1 cP

Compound: O=C(O)[C@@H]1C[C@@H](O)CN1 [Hydroxyproline]
% change compared to control (infliximab): 67.3%

Compound: OC[C@H](O)[C@@H](O)[C@H](O)[C@@H](O)CO [Iditol]
% reduction in light scattering at 350 nm vs. control (omalizumab [2]): 11.7%
% change in stability (ustekinumab [5]): 11.6%

Compound: O[C@H]1[C@H](O)[C@@H](O)[C@H](O)[C@@H](O)[C@H]1O [Inositol]
% change compared to control (infliximab): 58.9%

Compound: OC[C@H]1O[C@@](CO)(O[C@H]2O[C@H](CO)[C@@H](O)[C@H](O)[C@H]2O)[C@@H](O[C@H]2O[C@H](CO)[C@@H](O)[C@H](O)[C@H]2O)[C@@H]1O [Melezitose]
% reduction in light scattering at 350 nm vs. control (omalizumab [2]): 7.4%

Compound: NC(=O)c1cccnc1 [Niacinamide]
Normalized Viscosity [1, 9]: 0.63

Compound: O=C(CO)[C@H](O)[C@H](O)[C@H](O)CO [Psicose]
% reduction in light scattering at 350 nm vs. control (omalizumab [2]): 15.3%
% change in stability (ustekinumab [5]): 1.1%

Compound: CC(=O)[O-].[Na+] [Sodium acetate]
Normalized Viscosity ([1]; Excipient A caffeine 15 mg/mL + Excipient B 12 mg/mL): 0.77

Compound: C[N+](C)(C)[O-] [Trimethyl amine N-oxide]
% change compared to control (infliximab): 10.9%

Compound: OC[C@@H](O)[C@H](O)[C@@H](O)CO [Xylitol]
% increased stability (ustekinumab [7]): 6.3%
% reduction in light scattering at 350 nm vs. control (omalizumab [2]): 10.7%
% change in stability (ustekinumab [5]): 0.4%

Compound: O=C(CO)[C@@H](O)[C@H](O)[C@H](O)[C@H](O)CO [seduheptalose]
% reduction in light scattering at 350 nm vs. control (omalizumab [2]): 16.0%

Now from value to compound:

Normalized Viscosity [1, 8]: 0.73
Compound: N[C@@H](CC(=O)O)C(=O)O [Aspartic acid]

% reduction in light scattering at 350 nm vs. control (omalizumab [2]): 17.2%
Compound: O=C(O)CN(CCN(CC(=O)O)CC(=O)O)CCN(CC(=O)O)CC(=O)O [DTPA]

Normalized Viscosity ([1]; Excipient A caffeine 15 mg/mL + Excipient B 22 mg/mL): 0.65
Compound: CCO [Ethanol]

% reduction in light scattering at 350 nm vs. control (omalizumab [2]): 4.8%
% change in stability (ustekinumab [5]): 65.4%
Compound: NC(=O)c1ccncc1 [Isonicotinamide]

Normalized Viscosity [1, 8]: 0.69
Compound: CC(C)C[C@H](N)C(=O)O [Leucine]

% reduction in light scattering at 350 nm vs. control (omalizumab [2]): 17.8%
Compound: OC[C@@H](O)[C@@H](O)[C@H](O)[C@H](O)CO [Mannitol]

% reduction in light scattering at 350 nm vs. control (omalizumab [2]): 15.3%
% change in stability (ustekinumab [5]): 41.8%
Compound: CNC[C@H](O)[C@@H](O)[C@H](O)[C@H](O)CO [Meglumine]

Normalized Viscosity [1, 8]: 0.60
Day 1 (visual observation for precipitate) ([6]; caffeine 7.5 mg/mL): —
Day 7 (visual observation for precipitate) ([6]; caffeine 7.5 mg/mL): —
Day 18 (visual observation for precipitate) ([6]; caffeine 7.5 mg/mL): —
Day 27 (visual observation for precipitate) ([6]; caffeine 7.5 mg/mL): —
Day 56 (visual observation for precipitate) ([6]; caffeine 7.5 mg/mL): —
Day 1 (visual observation for precipitate) ([6]; caffeine 10 mg/mL): —
Day 7 (visual observation for precipitate) ([6]; caffeine 10 mg/mL): —
Day 18 (visual observation for precipitate) ([6]; caffeine 10 mg/mL): —
Day 27 (visual observation for precipitate) ([6]; caffeine 10 mg/mL): —
Day 56 (visual observation for precipitate) ([6]; caffeine 10 mg/mL): —
Day 1 (visual observation for precipitate) ([6]; caffeine 12.5 mg/mL): —
Day 7 (visual observation for precipitate) ([6]; caffeine 12.5 mg/mL): —
Day 18 (visual observation for precipitate) ([6]; caffeine 12.5 mg/mL): —
Day 27 (visual observation for precipitate) ([6]; caffeine 12.5 mg/mL): —
Day 56 (visual observation for precipitate) ([6]; caffeine 12.5 mg/mL): —
Day 1 (visual observation for precipitate) ([6]; caffeine 15 mg/mL): —
Day 7 (visual observation for precipitate) ([6]; caffeine 15 mg/mL): —
Day 18 (visual observation for precipitate) ([6]; caffeine 15 mg/mL): —
Day 27 (visual observation for precipitate) ([6]; caffeine 15 mg/mL): —
Day 56 (visual observation for precipitate) ([6]; caffeine 15 mg/mL): PPT
Day 1 (visual observation for precipitate) ([6]; caffeine 20 mg/mL): —
Day 7 (visual observation for precipitate) ([6]; caffeine 20 mg/mL): PPT
Day 18 (visual observation for precipitate) ([6]; caffeine 20 mg/mL): PPT
Day 27 (visual observation for precipitate) ([6]; caffeine 20 mg/mL): PPT
Day 56 (visual observation for precipitate) ([6]; caffeine 20 mg/mL): PPT
Compound: N[C@@H](Cc1ccccc1)C(=O)O [Phenylalanine]

% increased stability (ustekinumab [7]): 1.7%
% reduction in light scattering at 350 nm vs. control (omalizumab [2]): 3.7%
% change in stability (ustekinumab [5]): 2.6%
Compound: OC[C@H]1O[C@H](OC[C@H]2O[C@H](O[C@]3(CO)O[C@H](CO)[C@@H](O)[C@@H]3O)[C@H](O)[C@@H](O)[C@@H]2O)[C@H](O)[C@@H](O)[C@H]1O [Raffinose]

% change compared to control (infliximab): 46.2%
Compound: O=P(O)(O)C(O)(Cc1cccnc1)P(=O)(O)O [Risedronate]

% change compared to control (infliximab): 12.6%
Compound: Maltotriose
